Laboratory results taken from ChEMBL document CHEMBL1151108, “Plant antimutagenic agents, 1. General bioassay and isolation procedures” (J Nat Prod, 1988).

Legend:
[1] = tested on: Salmonella typhimurium; assay: Toxicity in Salmonella Typhimurium TA98 at 150 ug/plate in presence of liver S9 fraction by Ames test; type: organism-based; details: salmonella enterica subsp. enterica serovar typhimurium
[2] = tested on: Salmonella typhimurium; assay: Toxicity in Salmonella Typhimurium TA98 at 300 ug/plate in presence of liver S9 fraction by Ames test; type: organism-based; details: salmonella enterica subsp. enterica serovar typhimurium

## C=C1CCC[C@]2(C)C[C@H]3OC(=O)[C@@H](C)[C@H]3C[C@@H]12 [DIHYDROISOALANTOLACTONE]
[1]
  Activity: Non-toxic
[2]
  Activity: Non-toxic

## C=C1C(=O)O[C@@H]2C[C@@]3(C)CCCC(=C)[C@@H]3C[C@H]12 [ISOALANTOLACTONE]
[1]
  Activity: Toxic
[2]
  Activity: Toxic
